One may read the IC50 as the midpoint of a concentration-inhibition curve. Lower therefore signals inhibition by little substance. A word on the MIC: it is the least concentration at which growth counts as inhibited. A high value points to weaker potency.

Data on six molecules can be found in ChEMBL document CHEMBL1152854, “Synthesis, characterization and in vitro antibacterial activity of new steroidal 5-en-3-oxazolo and thiazoloquinoxaline” (Eur J Med Chem, 2008).

≈ marks a conversion by molar mass, not a printed value.

Assay [1] deals with Staphylococcus aureus. Description: Antimicrobial activity against Staphylococcus aureus after 24 hrs by broth microdilution method. The class given is functional, organism-based. For orientation: Dilution methods test growth across graded concentrations, often in twofold steps.
The test system of assay [2] is Streptococcus pyogenes. Nature of the assay: Antimicrobial activity against Streptococcus pyogenes after 24 hrs by broth microdilution method. The class given is functional, organism-based.
The subject of assay [3] is Salmonella typhimurium. Description: Antimicrobial activity against Salmonella Typhimurium at 200 ug/mL after 24 hrs by disk diffusion method. The class given is functional, Salmonella enterica subsp. enterica serovar Typhimurium. Particulars: Salmonella enterica, read-out: IZ. For orientation: Agar diffusion results depend on both activity and mobility in agar.
The test system of assay [4] is Staphylococcus aureus. Nature of the assay: Antimicrobial activity against Staphylococcus aureus at 200 ug/mL after 24 hrs by disk diffusion method. The format is functional. Particulars: read-out: IZ.
The test system of assay [5] is Salmonella typhimurium. Nature of the assay: Antimicrobial activity against Salmonella Typhimurium after 24 hrs by broth microdilution method. Particulars: Salmonella enterica. The format is functional, organism-based, Salmonella enterica subsp. enterica serovar Typhimurium.
The test system of assay [6] is Escherichia coli. Nature of the assay: Antimicrobial activity against Escherichia coli after 24 hrs by broth microdilution method. The format is functional, organism-based.
In assay [7] the test system is Streptococcus pyogenes. Description: Antimicrobial activity against Streptococcus pyogenes at 200 ug/mL after 24 hrs by disk diffusion method. Particulars: read-out: IZ. The class given is functional.
The subject of assay [8] is Escherichia coli. Description: Antimicrobial activity against Escherichia coli at 200 ug/mL after 24 hrs by disk diffusion method. Particulars: read-out: IZ. The format is functional.

With `CC(C)CCC[C@@H](C)[C@H]1CC[C@H]2[C@@H]3CC=C4C/C(=N/Nc5nc6nc7ccccc7nc6o5)CC[C@]4(C)[C@H]3CC[C@]12C`, the IC50 with Staphylococcus aureus [1] came to 0.48 µg/mL (≈ 0.845 µM); with Streptococcus pyogenes [2], 0.54 µg/mL (≈ 0.951 µM); in the assay with Salmonella typhimurium [5], 0.48 µg/mL (≈ 0.845 µM); in the assay on Escherichia coli [6], 0.26 µg/mL (≈ 0.458 µM). The MIC against Staphylococcus aureus [1] came out at 0.78 µg/mL (≈ 1.37 µM); in the assay on Streptococcus pyogenes [2] it was 0.78 µg/mL (≈ 1.37 µM); against Salmonella typhimurium [5], 0.78 µg/mL (≈ 1.37 µM); against Escherichia coli [6], 0.39 µg/mL (≈ 0.687 µM). For the same molecule, the zone of inhibition at 200 µg/mL stood at 24.5 mm with Salmonella typhimurium [3], 22.5 mm in the assay with Staphylococcus aureus [4], 23.4 mm in the assay with Streptococcus pyogenes [7] and 23.6 mm in the assay with Escherichia coli [8].

With `CC(C)CCC[C@@H](C)[C@H]1CC[C@H]2[C@@H]3CC=C4C/C(=N/NC(N)=O)CC[C@]4(C)[C@H]3CC[C@]12C`, the IC50 was found to be 3.65 µg/mL (≈ 8.26 µM) in the assay on Staphylococcus aureus [1], 3.68 µg/mL (≈ 8.33 µM) in the assay on Streptococcus pyogenes [2], 1.94 µg/mL (≈ 4.39 µM) in the assay on Salmonella typhimurium [5] and 1.88 µg/mL (≈ 4.26 µM) with Escherichia coli [6]. Besides, the MIC against Staphylococcus aureus [1] stood at 6.25 µg/mL (≈ 14.1 µM); against Streptococcus pyogenes [2], 6.25 µg/mL (≈ 14.1 µM); against Salmonella typhimurium [5], 3.12 µg/mL (≈ 7.06 µM); against Escherichia coli [6], 3.12 µg/mL (≈ 7.06 µM). The zone of inhibition at 200 µg/mL is 15.5 mm with Salmonella typhimurium [3], 14.6 mm in the assay on Staphylococcus aureus [4], 13.4 mm with Streptococcus pyogenes [7] and 14.2 mm with Escherichia coli [8].

For the molecule `CC(C)CCC[C@@H](C)[C@H]1CC[C@H]2[C@@H]3CC=C4C/C(=N/NC(N)=S)CC[C@]4(C)[C@H]3CC[C@]12C`, the IC50 in the assay on Staphylococcus aureus [1] came to 3.68 µg/mL (≈ 8.04 µM); in the assay on Streptococcus pyogenes [2], 3.66 µg/mL (≈ 8 µM); with Salmonella typhimurium [5] it was 3.72 µg/mL (≈ 8.13 µM); in the assay with Escherichia coli [6] it was 3.68 µg/mL (≈ 8.04 µM). In addition, the minimum inhibitory concentration (MIC) against Staphylococcus aureus [1], in the assay with Streptococcus pyogenes [2], in the assay with Salmonella typhimurium [5] and in the assay on Escherichia coli [6] was 6.25 µg/mL (≈ 13.7 µM) throughout. The zone of inhibition at 200 µg/mL was found to be 14.5 mm in the assay with Salmonella typhimurium [3], 15.2 mm in the assay with Staphylococcus aureus [4], 13.5 mm in the assay on Streptococcus pyogenes [7] and 15.5 mm in the assay on Escherichia coli [8].

On to `CC(C)CCC[C@@H](C)[C@H]1CC[C@H]2[C@@H]3CC=C4C/C(=N/Nc5nc6nc7ccccc7nc6s5)CC[C@]4(C)[C@H]3CC[C@]12C`, for which the IC50 in the assay on Staphylococcus aureus [1] stood at 0.54 µg/mL (≈ 0.925 µM); in the assay with Streptococcus pyogenes [2], 0.52 µg/mL (≈ 0.891 µM); in the assay with Salmonella typhimurium [5], 0.28 µg/mL (≈ 0.48 µM); with Escherichia coli [6] it was 0.24 µg/mL (≈ 0.411 µM). The MIC was 0.78 µg/mL (≈ 1.34 µM) in the assay with Staphylococcus aureus [1], 0.78 µg/mL (≈ 1.34 µM) in the assay on Streptococcus pyogenes [2], 0.39 µg/mL (≈ 0.668 µM) in the assay on Salmonella typhimurium [5] and 0.39 µg/mL (≈ 0.668 µM) with Escherichia coli [6]. In addition, the zone of inhibition at 200 µg/mL with Salmonella typhimurium [3] was determined as 20.4 mm; in the assay with Staphylococcus aureus [4] it was 21.2 mm; in the assay on Streptococcus pyogenes [7] it was 23.2 mm; with Escherichia coli [8], 21.4 mm.

As to `CC1(C)S[C@@H]2[C@H](NC(=O)[C@H](N)c3ccc(O)cc3)C(=O)N2[C@H]1C(=O)O` [AMOXICILLIN], the IC50 with Staphylococcus aureus [1] amounted to 1.82 µg/mL (≈ 4.98 µM); with Streptococcus pyogenes [2], 1.8 µg/mL (≈ 4.93 µM); in the assay on Salmonella typhimurium [5], 1.85 µg/mL (≈ 5.06 µM); in the assay on Escherichia coli [6] it was 1.9 µg/mL (≈ 5.2 µM). Also, the MIC against Staphylococcus aureus [1], against Streptococcus pyogenes [2], in the assay with Salmonella typhimurium [5] and against Escherichia coli [6] was 3.12 µg/mL (≈ 8.54 µM) throughout. Besides, the zone of inhibition at 200 µg/mL stood at 17.2 mm in the assay with Salmonella typhimurium [3], 17 mm in the assay on Staphylococcus aureus [4], 18.2 mm in the assay with Streptococcus pyogenes [7] and 20 mm in the assay with Escherichia coli [8].

Consider `CC(C)CCC[C@@H](C)[C@H]1CC[C@H]2[C@@H]3CC=C4C[C@@H](O)CC[C@]4(C)[C@H]3CC[C@]12C` [CHOLESTEROL], for which the zone of inhibition at 200 µg/mL in the assay on Salmonella typhimurium [3] worked out at 8.2 mm; in the assay with Staphylococcus aureus [4] it was 9.2 mm; in the assay with Streptococcus pyogenes [7], 7.8 mm; in the assay with Escherichia coli [8], 9 mm.
